Measurements: patent US20230355613A1, “METHODS FOR TREATING PANCREATIC DUCTAL ADENOCARCINOMA” (HEALTH RESEARCH, INC., priority 2022, published 2023)

Tests used:
Type in all cases: cell-based, human
[1] = tested on: Panc1 cells; experiment: Histone transcriptional read-through by RT-qPCR
Source text: (§1) JTE-607 induces RD-histone read-through preferentially in PDAC cells. […] It was sought to validate this transcriptional read-through phenomena experimentally by RT-qPCR. Two RD- and two RI-histones that show differences beyond their 3′ end boundaries were picked for experimental validation (FIGS. 13A and 13B). PCR primers were designed to amplify different regions within and beyond the boundaries of the 3′-UTR (FIG. 13C). […] However, the effect of JTE-607 on transcriptional read-through in HPNE cells was minimal (FIG. 5A). […] Because stable long-term knockdown can force cells to adapt, it was asked whether short-term knockdown of CPSF3 can recapitulate JTE-607 effect on transcriptional read-through. […] Improperly processed histone mRNAs fail to be exported into the cytoplasm for translation, leading to decreased protein levels. […] Next, it was determined whether histone dysregulation might be transcriptionally mediated by dysregulation of transcription factors at the levels of APA or gene expression. MotifMap, an integrative genome-wide map of regulatory motif sites, was used to find putative transcription factors regulating expression of RD histones. 51 transcription factors that have strong binding sites (1000 bp upstream of transcription start site; FDR<0.05) within RD histone promoters (Table S3 (attached as a Large Table)) were found. However, these histone transcription factors are neither APA altered nor differentially expressed upon JTE-607 treatment (FIGS. 13G and 13H). Taken together, these findings indicate that JTE-607 decreases RD histone expression by promoting transcriptional read-through.
(§2) RNA isolation and quantitative PCR. Cells were lysed with TRIzol reagent. RNA was isolated using Direct-zol RNA Miniprep. cDNA was synthesized using iScript cDNA Synthesis Kit. qPCR was conducted with SYBR Green PCR primers mixed with iTaq Universal SYBR Green Supermix and run on CFX connect systems (Bio-Rad). Data were analyzed in Microsoft Excel and graphed using GraphPad Prism (v 9.3.0).

[2] = tested on: HPNE cells; experiment: Histone transcriptional read-through by RT-qPCR
Source text: as §1, §2

[3] = tested on: MiaPaCa2 cells; experiment: Cell cycle analysis (propidium iodide FACS); conditions: within 24 hours
Description: (§3) Finally, we sought to determine how JTE-607-mediated depletion of RD histones led to defects in cell viability. As RD histones are required for cell cycle progression, we assessed the effects of JTE-607 on cell cycle distribution. […] In contrast, JTE-607 arrested Panc1 and MiaPaCa2 PDAC cells in S-phase of the cell cycle within 24 hours (FIGS. 7A and 7B). To corroborate the impact of CPSF3 knockdown on cell cycle, CPSF3 was transiently knocked-down with siRNA in Panc1 and HPNE cells (FIGS. 13D, 7C). CPSF3 knockdown induced cell cycle arrest in Panc1 cells with minimal effect on HPNE cells (FIGS. 7D and 7E). However, unlike CPSF3 inhibition-induced cell cycle arrest at S-phase, CPSF3 knockdown cells arrested at G2. […] To more specifically investigate the timing and extent of S-phase arrest upon JTE-607 treatment, BrdU incorporation was examined in a time-dependent manner (FIG. 7F). […] This is in support of previous reports where histone defects slow the progression of cells during S-phase. Therefore, JTE-607 destabilizes chromatin and attenuates PDAC cell proliferation through S-phase cell cycle arrest.
(§4) Cell cycle analysis. Cells were trypsinized and resuspended in 1×PBS, then fixed with ice-cold 70% ethanol for 1 hour at −20° C. Cells were then washed with cold 1×PBS and incubated with RNaseA (200 μg/ml) at 37° C. for 1 hour. Propidium iodide (40 μg/ml) was then added, incubated for 1 hour in the dark and analyzed by FACS at 488 nm. Data were analyzed by FCS express software (v7.06.0015).

[4] = tested on: Panc1 cells; experiment: Cell cycle analysis (propidium iodide FACS); conditions: within 24 hours
Description: as §3, §4

[5] = tested on: HPNE cells; experiment: Cell cycle analysis (propidium iodide FACS)
Description: as §3, §4

[6] = tested on: MiaPaCa2 cells; experiment: Cell proliferation time course (CellTiter-Glo, days 0, 2, 4, 6); conditions: increasing concentrations, days 0-6, dose-dependent
Source text: (§5) PDAC cells are sensitive to chemical inhibition of CPSF3. CPSF3 was recently identified as the target for the small molecule JTE-607. JTE-607 is a prodrug that, when metabolized by the ester hydrolyzing enzyme carboxylesterase 1 (CES1), binds to CPSF3 and inhibits its catalytic activity, impairing the processing of newly synthesized mRNAs. As genetic depletion of CPSF3 attenuated PDAC cell proliferation (FIG. 1), it 2as hypothesized that pharmacologic inhibition of CPSF3 with JTE-607 could represent a novel therapeutic approach in PDAC. The sensitivity of multiple human pancreatic cell lines, both non-transformed and PDAC, to JTE-607 in a 72-hour dose-response cell viability assay was examined. […] To examine if sensitivity to CPSF3 inhibition was associated with proliferation rate, the relationship between cell line doubling time and JTE-607 sensitivity was assessed. […] Next, the effect of JTE-607 on cell proliferation by treating cells with increasing concentrations of JTE-607 and assessing cell viability in a time-dependent fashion (FIGS. 2C-2E) was determined. […] Finally, the effect of JTE-607 on colony formation in PDAC cell lines was tested. […] Therefore, JTE-607 selectively attenuates proliferation of PDAC cells over non-transformed pancreatic cells.
(§6) JTE-607 studies. For dose-response measurements, cells were seeded at a density of 1000 cells per well in a 96-well white plate. The next day, JTE-607 was titrated over a range of concentrations using the Tecan D300e Digital Dispenser and cell viability was measured 72 hours post drug titration using a CellTiter-Glo Luminescent Cell Viability Assay Kit (Promega). For cell proliferation experiments, cells were seeded at a density of 250 cells per well in a 96-well white plate. DMSO control or JTE-607 was dispensed at varying concentrations and proliferation was measured using CellTiter-Glo Assay at days 0, 2, 4 and 6. For clonogenicity experiments, cells were seeded at a concentration of 500 cells per well and treated with different concentrations of JTE-607. […] Colony area was measured using ImageJ software. […]

[7] = tested on: Panc1 cells; experiment: as above; conditions: increasing concentrations, days 0-6, dose-dependent
Source text: as §5, §6

[8] = tested on: HPNE cells; experiment: as above; conditions: increasing concentrations, days 0-6
Source text: as §5, §6

[9] = early or late time points (2 h, 24 h)

CCOC(=O)[C@H](Cc1ccccc1)NC(=O)c1cc(Cl)c(OCCN2CCN(C)CC2)c(Cl)c1O [JTE-607]
transcriptional read-through of RD histones ([1]; 24 h treatment, normalized to DMSO): up to −20 fold change | transcriptional read-through of RI histones [1, 9]: did not induce transcriptional read-through | transcriptional read-through of RD histones ([2]; 24 h treatment): minimal | transcriptional read-through of RI histones [2, 9]: did not induce transcriptional read-through | cell cycle arrest phase [3]: S-phase | cell cycle arrest phase [4]: S-phase | cell cycle distribution [5]: no impact on cell cycle distribution | effect on proliferation [6]: significantly attenuated | effect on proliferation [7]: significantly attenuated | effect on proliferation [8]: no effect on proliferation
